Reference: patent publication US11078216B2, “Bisaryl amides as NRF2 activators” (GLAXOSMITHKLINE INTELLECTUAL PROPERTY DEVELOPMENT LIMITED, priority 2016, dated 2021)

Tested on: NRF2 (NQO1 activity as marker for NRF2 activation), BEAS-2B cells
Assay: BEAS-2B NQO1 MTT Assay
Format: cell-based
Conditions: Homo sapiens, EC50 of NQO1 specific activity induction, 48 hours incubation, read-out: EC50
Procedure, shortened: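 As a marker of NRF2 activation, NQO1 specific activity was read from the rate of absorbance change at 570 nm in MTT cocktail over 30 minutes. Lysates came from BEAS-2B cells treated for 48 hours at 37° C, and EC50 was derived by 3-parameter fitting.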

SMILES	EC50 [nM]
CC[C@@H]1CN(Cc2cc([C@@H](c3ccc4c(nnn4CC)c3C)C(C)(C)NC(=O)CC#N)ccc2C)S(=O)(=O)c2ccccc2O1 [Example 144, 2-Cyano-N-((S)-1-(3-(((R)-4-ethyl-1,1-dioxido-3,4-dihydro-2H-benzo[b][1,4,5]oxathiazepin-2-yl)methyl)-4-methylphenyl)-1-(1-ethyl-4-methyl-1H-benzo[d][1,2,3]triazol-5-yl)-2-methylpropan-2-yl)acetamide]	10 to 100
CC[C@@H]1CN(Cc2cc([C@@H](c3ccc4c(nnn4CC)c3C)C(C)(C)NC(=O)c3cnc(OC)nc3)ccc2C)S(=O)(=O)c2ccccc2O1 [Example 145, N-((S)-1-(3-(((R)-4-Ethyl-1,1-dioxido-3,4-dihydro-2H-benzo[b][1,4,5]oxathiazepin-2-yl)methyl)-4-methylphenyl)-1-(1-ethyl-4-methyl-1H-benzo[d][1,2,3]triazol-5-yl)-2-methylpropan-2-yl)-2-methoxypyrimidine-5-carboxamide]	1 to 10
CC[C@@H]1CN(Cc2cc([C@@H](c3ccc4c(nnn4CC)c3C)C(C)(C)NC(=O)c3cncnc3)ccc2C)S(=O)(=O)c2ccccc2O1 [Example 146, N-((S)-1-(3-(((R)-4-Ethyl-1,1-dioxido-3,4-dihydro-2H-benzo[b][1,4,5]oxathiazepin-2-yl)methyl)-4-methylphenyl)-1-(1-ethyl-4-methyl-1H-benzo[d][1,2,3]triazol-5-yl)-2-methylpropan-2-yl)pyrimidine-5-carboxamide]	10 to 100
CC[C@@H]1CN(Cc2cc([C@@H](c3ccc4c(nnn4CC)c3C)C(C)(C)NC(=O)c3cnc(SC)nc3)ccc2C)S(=O)(=O)c2ccccc2O1 [Example 147, N-((S)-1-(3-(((R)-4-Ethyl-1,1-dioxido-3,4-dihydro-2H-benzo[b][1,4,5]oxathiazepin-2-yl)methyl)-4-methylphenyl)-1-(1-ethyl-4-methyl-1H-benzo[d][1,2,3]triazol-5-yl)-2-methylpropan-2-yl)-2-(methylthio)pyrimidine-5-carboxamide]	10 to 100
CC[C@@H]1CN(Cc2cc([C@@H](c3ccc4c(nnn4CC)c3C)C(C)(C)NC(=O)c3c[nH]cn3)ccc2C)S(=O)(=O)c2ccccc2O1 [Example 148, N-((S)-1-(3-(((R)-4-Ethyl-1,1-dioxido-3,4-dihydro-2H-benzo[b][1,4,5]oxathiazepin-2-yl)methyl)-4-methylphenyl)-1-(1-ethyl-4-methyl-1H-benzo[d][1,2,3]triazol-5-yl)-2-methylpropan-2-yl)-1H-imidazole-4-carboxamide]	100 to 1000
CC[C@@H]1CN(Cc2cc([C@@H](c3ccc4c(nnn4CC)c3C)C(C)(C)NC(=O)c3cscn3)ccc2C)S(=O)(=O)c2ccccc2O1 [Example 149, N-((S)-1-(3-(((R)-4-Ethyl-1,1-dioxido-3,4-dihydro-2H-benzo[b][1,4,5]oxathiazepin-2-yl)methyl)-4-methylphenyl)-1-(1-ethyl-4-methyl-1H-benzo[d][1,2,3]triazol-5-yl)-2-methylpropan-2-yl)thiazole-4-carboxamide]	10 to 100
CC[C@@H]1CN(Cc2cc([C@@H](c3ccc4c(nnn4CC)c3C)C(C)(C)NC(=O)c3cc[nH]n3)ccc2C)S(=O)(=O)c2ccccc2O1 [Example 150, N-((S)-1-(3-(((R)-4-Ethyl-1,1-dioxido-3,4-dihydro-2H-benzo[b][1,4,5]oxathiazepin-2-yl)methyl)-4-methylphenyl)-1-(1-ethyl-4-methyl-1H-benzo[d][1,2,3]triazol-5-yl)-2-methylpropan-2-yl)-1H-pyrazole-3-carboxamide]	10 to 100
CC[C@@H]1CN(Cc2cc([C@@H](c3ccc4c(nnn4CC)c3C)C(C)(C)NC(=O)c3cocn3)ccc2C)S(=O)(=O)c2ccccc2O1 [Example 151, N-((S)-1-(3-(((R)-4-Ethyl-1,1-dioxido-3,4-dihydro-2H-benzo[b][1,4,5]oxathiazepin-2-yl)methyl)-4-methylphenyl)-1-(1-ethyl-4-methyl-1H-benzo[d][1,2,3]triazol-5-yl)-2-methylpropan-2-yl)oxazole-4-carboxamide]	10 to 100
CC[C@@H]1CN(Cc2cc([C@@H](c3ccc4c(nnn4CC)c3C)C(C)(C)NC(=O)c3ccno3)ccc2C)S(=O)(=O)c2ccccc2O1 [Example 152, N-((S)-1-(3-(((R)-4-Ethyl-1,1-dioxido-3,4-dihydro-2H-benzo[b][1,4,5]oxathiazepin-2-yl)methyl)-4-methylphenyl)-1-(1-ethyl-4-methyl-1H-benzo[d][1,2,3]triazol-5-yl)-2-methylpropan-2-yl)isoxazole-5-carboxamide]	1 to 10
CC[C@@H]1CN(Cc2cc([C@@H](c3ccc4c(nnn4CC)c3C)C(C)(C)NC(=O)c3ccon3)ccc2C)S(=O)(=O)c2ccccc2O1 [Example 153, N-((S)-1-(3-(((R)-4-Ethyl-1,1-dioxido-3,4-dihydro-2H-benzo[b][1,4,5]oxathiazepin-2-yl)methyl)-4-methylphenyl)-1-(1-ethyl-4-methyl-1H-benzo[d][1,2,3]triazol-5-yl)-2-methylpropan-2-yl)isoxazole-3-carboxamide]	10 to 100
CC[C@@H]1CN(Cc2cc([C@@H](c3ccc4c(nnn4CC)c3C)C(C)(C)NC(=O)c3cncc(F)c3)ccc2C)S(=O)(=O)c2ccccc2O1 [Example 154, N-((S)-1-(3-(((R)-4-Ethyl-1,1-dioxido-3,4-dihydro-2H-benzo[b][1,4,5]oxathiazepin-2-yl)methyl)-4-methylphenyl)-1-(1-ethyl-4-methyl-1H-benzo[d][1,2,3]triazol-5-yl)-2-methylpropan-2-yl)-5-fluoronicotinamide]	10 to 100
CC[C@@H]1CN(Cc2cc([C@@H](c3ccc4c(nnn4CC)c3C)C(C)(C)NC(=O)c3cncc(C(F)(F)F)c3)ccc2C)S(=O)(=O)c2ccccc2O1 [Example 155, N-((S)-1-(3-(((R)-4-Ethyl-1,1-dioxido-3,4-dihydro-2H-benzo[b][1,4,5]oxathiazepin-2-yl)methyl)-4-methylphenyl)-1-(1-ethyl-4-methyl-1H-benzo[d][1,2,3]triazol-5-yl)-2-methylpropan-2-yl)-5-(trifluoromethyl) nicotinamide]	10 to 100
CC[C@@H]1CN(Cc2cc([C@@H](c3ccc4c(nnn4CC)c3C)C(C)(C)NC(=O)c3ccc(=O)[nH]c3)ccc2C)S(=O)(=O)c2ccccc2O1 [Example 156, N-((S)-1-(3-(((R)-4-Ethyl-1,1-dioxido-3,4-dihydro-2H-benzo[b][1,4,5]oxathiazepin-2-yl)methyl)-4-methylphenyl)-1-(1-ethyl-4-methyl-1H-benzo[d][1,2,3]triazol-5-yl)-2-methylpropan-2-yl)-6-oxo-1,6-dihydropyridine-3-carboxamide]	100 to 1000
CC[C@@H]1CN(Cc2cc([C@@H](c3ccc4c(nnn4CC)c3C)C(C)(C)NC(=O)c3cnc(S(C)(=O)=O)nc3)ccc2C)S(=O)(=O)c2ccccc2O1 [Example 157, N—((S)-1-(3-(((R)-4-Ethyl-1,1-dioxido-3,4-dihydro-2H-benzo[b][1,4,5]oxathiazepin-2-yl)methyl)-4-methylphenyl)-1-(1-ethyl-4-methyl-1H-benzo[d][1,2,3]triazol-5-yl)-2-methylpropan-2-yl)-2-(methylsulfonyl)pyrimidine-5-carboxamide]	100 to 1000
CC[C@@H]1CN(Cc2cc([C@@H](c3ccc4c(nnn4CC)c3C)C(C)(C)NC(=O)c3cnc(N4CCC4)nc3)ccc2C)S(=O)(=O)c2ccccc2O1 [Example 158, 2-(Azetidin-1-yl)-N—((S)-1-(3-(((R)-4-ethyl-1,1-dioxido-3,4-dihydro-2H-benzo[b][1,4,5]oxathiazepin-2-yl)methyl)-4-methylphenyl)-1-(1-ethyl-4-methyl-1H-benzo[d][1,2,3]triazol-5-yl)-2-methylpropan-2-yl)pyrimidine-5-carboxamide]	10 to 100
CC[C@@H]1CN(Cc2cc([C@@H](c3ccc4c(nnn4CC)c3C)C(C)(C)NC(=O)c3cnc(N4CCCC4)nc3)ccc2C)S(=O)(=O)c2ccccc2O1 [Example 159, N-((S)-1-(3-(((R)-4-Ethyl-1,1-dioxido-3,4-dihydro-2H-benzo[b][1,4,5]oxathiazepin-2-yl)methyl)-4-methylphenyl)-1-(1-ethyl-4-methyl-1H-benzo[d][1,2,3]triazol-5-yl)-2-methylpropan-2-yl)-2-(pyrrolidin-1-yl)pyrimidine-5-carboxamide]	10 to 100
CC[C@@H]1CN(Cc2cc([C@@H](c3ccc4c(nnn4CC)c3C)C(C)(C)NC(=O)c3cnc(OCCCOC)nc3)ccc2C)S(=O)(=O)c2ccccc2O1 [Example 160, N-((S)-1-(3-(((R)-4-Ethyl-1,1-dioxido-3,4-dihydro-2H-benzo[b][1,4,5]oxathiazepin-2-yl)methyl)-4-methylphenyl)-1-(1-ethyl-4-methyl-1H-benzo[d][1,2,3]triazol-5-yl)-2-methylpropan-2-yl)-2-(3-methoxypropoxy)pyrimidine-5-carboxamide]	1 to 10
CC[C@@H]1CN(Cc2cc([C@@H](c3ccc4c(nnn4CC)c3C)C(C)(C)NC(=O)c3cnc(OCCO)nc3)ccc2C)S(=O)(=O)c2ccccc2O1 [Example 161, N-((S)-1-(3-(((R)-4-Ethyl-1,1-dioxido-3,4-dihydro-2H-benzo[b][1,4,5]oxathiazepin-2-yl)methyl)-4-methylphenyl)-1-(1-ethyl-4-methyl-1H-benzo[d][1,2,3]triazol-5-yl)-2-methylpropan-2-yl)-2-(2-hydroxyethoxy)pyrimidine-5-carboxamide]	10 to 100
CC[C@@H]1CN(Cc2cc([C@@H](c3ccc4c(nnn4CC)c3C)C(C)(C)NC(=O)c3cnc(N(C)C)nc3)ccc2C)S(=O)(=O)c2ccccc2O1 [Example 162]	10 to 100
CCOCCOc1ncc(C(=O)NC(C)(C)[C@@H](c2ccc(C)c(CN3C[C@@H](CC)Oc4ccccc4S3(=O)=O)c2)c2ccc3c(nnn3CC)c2C)cn1 [Example 163, 2-(2-Ethoxyethoxy)-N-((S)-1-(3-(((R)-4-ethyl-1,1-dioxido-3,4-dihydro-2H-benzo[b][1,4,5]oxathiazepin-2-yl)methyl)-4-methylphenyl)-1-(1-ethyl-4-methyl-1H-benzo[d][1,2,3]triazol-5-yl)-2-methylpropan-2-yl)pyrimidine-5-carboxamide]	1 to 10
